The text below walks through data of paper PMC4452589, “An evaluation of the brain distribution of [^11C]GSK1034702, a muscarinic-1 (M1) positive allosteric modulator in the living human brain using positron emission tomography” (EJNMMI Research, 2014).

Where two headings read alike, the source gives them in different places.

Series [1] is described as follows: [11C]GSK1034702 PET brain distribution and kinetics in anaesthetised baboons. The series is classed as in vivo, Papio anubis. Conditions: for Kp: baboon (Papio anubis), intravenous. On the procedure:
The brain distribution of carbon-11-labelled GSK1034702 ([^11C]GSK1034702) was conducted in two anaesthetised baboons (P. anubis), to assess its transport across the BBB. These studies were conducted at Columbia University Medical Center, New York. The study was approved by the Columbia University Institutional Animal Care and Use Committee (IACUC).
Two adult baboons were studied over a 6-week period. Subject A (an ovariectomised female) received two injections of [^11C]GSK1034702 22 days apart, while subject B (male) received a single injection of [^11C]GSK1034702. Each experimental session included a single dynamic PET scan.
Fasted animals were immobilised with intramuscular ketamine injection (10 mg/kg), and anesthetised with 1.8% isoflurane via an endotracheal tube. Vital signs were monitored every 10 min and the temperature was kept constant at 37°C with heated water blankets. An intravenous (IV) perfusion line was used for hydration and injection of the radiotracer. A catheter was inserted in a femoral artery for arterial blood sampling. The head was positioned at the centre of the field of view. PET imaging was performed with the ECAT EXACT HR + PET scanner (Siemens/CTI, Knoxville, TN) operating in 3D mode (in-plane resolution of 4.3, 4.5, 5.4 and 8.0 mm, full width at half maximum (FWHM) at a distance of 0, 1, 10 and 20 cm from the centre of the field of view). A 15-min transmission scan was obtained prior to radiotracer injection for attenuation correction. […] Following IV administration (45-s bolus) of a single dose of [^11C]GSK1034702 dynamic PET, arterial blood and metabolite data were acquired for 120 min (subject A) for the first two scans and only 60 min for the third scan due to a technical issue (subject B).
Regions of interest (ROIs) were drawn on previously acquired T1-weighted anatomical magnetic resonance imaging (MRI) brain images for each animal. The following regions were defined: cerebellum, hippocampus, thalamus, striatum, frontal cortex and occipital cortex. Regions were drawn in the MEDx (Sensor Systems Inc., Sterling, VA, USA) software environment. PET emission data were attenuation-corrected using the transmission scan, and frames were reconstructed using a Shepp filter (cutoff 0.5 cycles/projection rays). Decay-corrected PET images were registered to the MRI images by maximisation of mutual information using SPM2 and Matlab software. Regional boundaries were transferred from the MRI to the individual registered PET frames, and time-activity curves were measured in the MEDx environment. Right and left regions were averaged. For a given animal, the same regions were used for all scans.
Brain time activity curves (TACs) were corrected for the contribution of blood activity assuming a 5% blood volume. A metabolite-corrected arterial input function and regional TACs were fitted to a compartmental model to derive regional VT estimates as well as a whole brain VT.

A short description of series [2]: plasma free fraction by ultrafiltration, baboon arterial plasma. The settings on record: baboon (Papio anubis), mean ± SD, read-out: free fraction in plasma (fP). Format: in vitro ADME. On the procedure:
For all non-human primate studies, the non-protein-bound fraction of [^11C]GSK1034702 in arterial plasma (fP) was quantified using the following methodology: triplicate 200 μL aliquots of plasma collected before injection were mixed with [^11C]GSK1034702, pipetted into ultrafiltration units (Centrifree; Amicon, Danvers, MA, USA) and centrifuged at room temperature (20 min at 4,000 rpm). At the end of centrifugation, plasma and ultrafiltrate activities were counted and fP was calculated as the ratio of ultrafiltrate to total activity concentrations.

[3] abbreviates: both sexes, whole brain, Papio anubis, mean ± SD of three scans, two-tissue compartmental model, read-out: whole brain VT.

Consider `[11CH3]c1cc(F)c2[nH]c(=O)n(C3CCN(C4CCOCC4)CC3)c2c1` [[^11C]GSK1034702], for which the “Regional K1” value came to 0.46 mL.cm^-3.min^-1 in series [1] (Cerebellum, Subject A Exam 1, baboon); 0.57 mL.cm^-3.min^-1 in series [1] (Cerebellum, Subject A Exam 2, baboon); 0.35 mL.cm^-3.min^-1 in series [1] (Cerebellum, Subject B Exam 1, baboon); 0.39 mL.cm^-3.min^-1 in series [1] (Frontal Ctx, Subject A Exam 1, baboon); 0.53 mL.cm^-3.min^-1 in series [1] (Frontal Ctx, Subject A Exam 2, baboon); 0.32 mL.cm^-3.min^-1 in series [1] (Frontal Ctx, Subject B Exam 1, baboon). In addition, the “Regional K1” value came out at 0.39 mL.cm^-3.min^-1 in series [1] (Hippocampus, Subject A Exam 1, baboon); 0.60 mL.cm^-3.min^-1 in series [1] (Hippocampus, Subject A Exam 2, baboon); 0.32 mL.cm^-3.min^-1 in series [1] (Hippocampus, Subject B Exam 1, baboon); 0.67 mL.cm^-3.min^-1 in series [1] (Occipital Ctx, Subject A Exam 1, baboon); 0.53 mL.cm^-3.min^-1 in series [1] (Occipital Ctx, Subject A Exam 2, baboon); 0.37 mL.cm^-3.min^-1 in series [1] (Occipital Ctx, Subject B Exam 1, baboon). The “Regional K1” value in series [1] (Striatum, Subject A Exam 1, baboon) came out at 0.39 mL.cm^-3.min^-1; in series [1] (Striatum, Subject A Exam 2, baboon), 0.51 mL.cm^-3.min^-1; in series [1] (Striatum, Subject B Exam 1, baboon) it was 0.39 mL.cm^-3.min^-1; in series [1] (Thalamus, Subject A Exam 1, baboon) it was 0.44 mL.cm^-3.min^-1; in series [1] (Thalamus, Subject A Exam 2, baboon), 0.52 mL.cm^-3.min^-1; in series [1] (Thalamus, Subject B Exam 1, baboon), 0.27 mL.cm^-3.min^-1. In addition, the “Regional K1” value in series [1] (Whole Brain, Subject A Exam 1, baboon) is 0.45 mL.cm^-3.min^-1; in series [1] (Whole Brain, Subject A Exam 2, baboon), 0.50 mL.cm^-3.min^-1; in series [1] (Whole Brain, Subject B Exam 1, baboon), 0.35 mL.cm^-3.min^-1. The “whole brain VT” value in series [1] (Papio anubis, mean ± SD of three scans, two-tissue compartmental model) is listed as 3.97 ± 0.38 mL.cm^−3. Further, the Kp amounted to 3.97 in series [1] (setting [3]); 4.07 in series [1] (female, cerebellum, Cerebellum, Subject A Exam 1, baboon, read-out: Regional V T); 3.79 in series [1] (female, cerebellum, Cerebellum, Subject A Exam 2, baboon, read-out: Regional V T); 3.92 in series [1] (female, frontal cortex, Frontal Ctx, Subject A Exam 1, baboon, read-out: Regional V T); 3.73 in series [1] (female, frontal cortex, Frontal Ctx, Subject A Exam 2, baboon, read-out: Regional V T); 4.78 in series [1] (female, hippocampus, Hippocampus, Subject A Exam 1, baboon, read-out: Regional V T). Also, the Kp came out at 4.62 in series [1] (female, hippocampus, Hippocampus, Subject A Exam 2, baboon, read-out: Regional V T); 4.49 in series [1] (female, occipital cortex, Occipital Ctx, Subject A Exam 1, baboon, read-out: Regional V T); 4.64 in series [1] (female, occipital cortex, Occipital Ctx, Subject A Exam 2, baboon, read-out: Regional V T); 3.86 in series [1] (female, striatum, Striatum, Subject A Exam 1, baboon, read-out: Regional V T); 3.95 in series [1] (female, striatum, Striatum, Subject A Exam 2, baboon, read-out: Regional V T); 4.06 in series [1] (female, thalamus, Thalamus, Subject A Exam 1, baboon, read-out: Regional V T). Besides, the Kp turned out to be 3.91 in series [1] (female, thalamus, Thalamus, Subject A Exam 2, baboon, read-out: Regional V T); 4.2 in series [1] (female, whole brain, Whole brain, Subject A Exam 1, baboon, read-out: Regional V T); 4.19 in series [1] (female, whole brain, Whole brain, Subject A Exam 2, baboon, read-out: Regional V T); 3.09 in series [1] (male, cerebellum, Cerebellum, Subject B Exam 1, baboon, read-out: Regional V T); 3.52 in series [1] (male, frontal cortex, Frontal Ctx, Subject B Exam 1, baboon, read-out: Regional V T); 3.52 in series [1] (male, hippocampus, Hippocampus, Subject B Exam 1, baboon, read-out: Regional V T). The Kp came to 3.89 in series [1] (male, occipital cortex, Occipital Ctx, Subject B Exam 1, baboon, read-out: Regional V T); 3.21 in series [1] (male, striatum, Striatum, Subject B Exam 1, baboon, read-out: Regional V T); 2.75 in series [1] (male, thalamus, Thalamus, Subject B Exam 1, baboon, read-out: Regional V T); 3.52 in series [1] (male, whole brain, Whole brain, Subject B Exam 1, baboon, read-out: Regional V T). The fraction unbound at 20 min in series [2] came to 0.54 ± 0.21.

Consider `Cc1cc(F)c2[nH]c(=O)n(C3CCN(C4CCOCC4)CC3)c2c1` [GSK1034702], for which the Kp in series [1] (both sexes, cortex, primate, as worded, read-out: VT measured in the primate cortex) stood at 4; in series [1] (setting [3]), 3.97. The fraction unbound at 20 min in series [2] amounted to 0.54.
